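Following 48 hours of exposure in 96-well plates, responses at five concentrations were used to interpolate endpoints linearly. At the GI50, growth is halved.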 Activity calls are given as the source filed them. No stated cut-off is given here; in the data, active = GI50 up to about 1.1 µM and inactive = higher.
Tests used:
Assay in all cases: DTP human tumour cell line panel, 48 h
786-0 = tested on: 786-0
A549 = tested on: A549
ACHN = tested on: ACHN
CAKI-1 = tested on: CAKI-1
CCRF-CEM = tested on: CCRF-CEM
COLO 205 = tested on: COLO 205
DLD-1 = tested on: DLD-1
DMS-114 = tested on: DMS-114
DMS-273 = tested on: DMS-273
EKVX = tested on: EKVX
HCC 2998 = tested on: HCC 2998
HCT-116 = tested on: HCT-116
HCT-15 = tested on: HCT-15
HOP-62 = tested on: HOP-62
HOP-92 = tested on: HOP-92
HT-29 = tested on: HT-29
IGROV-1 = tested on: IGROV-1
K562 = tested on: K562
KM-20L2 = tested on: KM-20L2
KM12 = tested on: KM12
LOX IMVI = tested on: LOX IMVI
LXFL 529 = tested on: LXFL 529
M14 = tested on: M14
M19-MEL = tested on: M19-MEL
MOLT-4 = tested on: MOLT-4
Malme-3M = tested on: Malme-3M
NCI-H226 = tested on: NCI-H226
NCI-H23 = tested on: NCI-H23
NCI-H460 = tested on: NCI-H460
NCI-H522 = tested on: NCI-H522
OVCAR-3 = tested on: OVCAR-3
OVCAR-4 = tested on: OVCAR-4
OVCAR-5 = tested on: OVCAR-5
OVCAR-8 = tested on: OVCAR-8
RPMI-8226 = tested on: RPMI-8226
RXF 631 = tested on: RXF 631
SF-268 = tested on: SF-268
SF-295 = tested on: SF-295
SF-539 = tested on: SF-539
SK-MEL-28 = tested on: SK-MEL-28
SK-MEL-2 = tested on: SK-MEL-2
SK-MEL-5 = tested on: SK-MEL-5
SK-OV-3 = tested on: SK-OV-3
SN12C = tested on: SN12C
SNB-19 = tested on: SNB-19
SNB-75 = tested on: SNB-75
SNB-78 = tested on: SNB-78
SR = tested on: SR
SW-620 = tested on: SW-620
TK-10 = tested on: TK-10
U-251 = tested on: U-251
UACC-62 = tested on: UACC-62
UO-31 = tested on: UO-31
XF498 = tested on: XF498
HL-60 = tested on: HL-60
UACC-257 = tested on: UACC-257
HOP-18 = tested on: HOP-18
RXF 393 = tested on: RXF 393

SMILES: CC1=C(CC2C(=O)N(c3ccccc3)S(=O)(=O)NC2C)C(=O)N(c2ccccc2)S(=O)(=O)N1C (stereo not drawn)
- GI50 (786-0): > 100 µM (inactive)
- GI50 (A549): > 100 µM (inactive)
- GI50 (ACHN): > 100 µM (inactive)
- GI50 (CAKI-1): > 100 µM (inactive)
- GI50 (CCRF-CEM): > 100 µM (inactive)
- GI50 (COLO 205): > 100 µM (inactive)
- GI50 (DLD-1): > 100 µM (inactive)
- GI50 (DMS-114): > 100 µM (inactive)
- GI50 (DMS-273): > 100 µM (inactive)
- GI50 (EKVX): > 100 µM (inactive)
- GI50 (HCC 2998): > 100 µM (inactive)
- GI50 (HCT-116): > 100 µM (inactive)
- GI50 (HCT-15): > 100 µM
- GI50 (HOP-62): > 100 µM (inactive)
- GI50 (HOP-92): > 100 µM (inactive)
- GI50 (HT-29): > 100 µM (inactive)
- GI50 (IGROV-1): > 100 µM (inactive)
- GI50 (K562): > 100 µM (inactive)
- GI50 (KM-20L2): > 100 µM (inactive)
- GI50 (KM12): > 100 µM (inactive)
- GI50 (LOX IMVI): > 100 µM (inactive)
- GI50 (LXFL 529): > 100 µM (inactive)
- GI50 (M14): > 100 µM (inactive)
- GI50 (M19-MEL): > 100 µM (inactive)
- GI50 (MOLT-4): > 100 µM (inactive)
- GI50 (Malme-3M): > 100 µM (inactive)
- GI50 (NCI-H226): > 100 µM (inactive)
- GI50 (NCI-H23): > 100 µM (inactive)
- GI50 (NCI-H460): > 100 µM (inactive)
- GI50 (NCI-H522): > 100 µM (inactive)
- GI50 (OVCAR-3): > 100 µM (inactive)
- GI50 (OVCAR-4): > 100 µM (inactive)
- GI50 (OVCAR-5): > 100 µM (inactive)
- GI50 (OVCAR-8): > 100 µM (inactive)
- GI50 (RPMI-8226): > 100 µM (inactive)
- GI50 (RXF 631): > 100 µM (inactive)
- GI50 (SF-268): > 100 µM (inactive)
- GI50 (SF-295): > 100 µM (inactive)
- GI50 (SF-539): > 100 µM (inactive)
- GI50 (SK-MEL-28): > 100 µM (inactive)
- GI50 (SK-MEL-2): > 100 µM (inactive)
- GI50 (SK-MEL-5): > 100 µM (inactive)
- GI50 (SK-OV-3): > 100 µM (inactive)
- GI50 (SN12C): > 100 µM (inactive)
- GI50 (SNB-19): > 100 µM (inactive)
- GI50 (SNB-75): > 100 µM (inactive)
- GI50 (SNB-78): > 100 µM (inactive)
- GI50 (SR): > 100 µM (inactive)
- GI50 (SW-620): > 100 µM (inactive)
- GI50 (TK-10): > 100 µM (inactive)
- GI50 (U-251): > 10 µM (inactive)
- GI50 (UACC-62): > 100 µM (inactive)
- GI50 (UO-31): > 100 µM (inactive)
- GI50 (XF498): > 100 µM (inactive)

SMILES: Clc1ccc(OCc2nnc3n2N=C(c2ccccc2)CS3)cc1
- GI50 (786-0): 16.2 µM (inactive)
- GI50 (A549): 16.4 µM (inactive)
- GI50 (ACHN): 10.9 µM (inactive)
- GI50 (CAKI-1): 24.9 µM (inactive)
- GI50 (COLO 205): 15.3 µM (inactive)
- GI50 (DLD-1): 16.5 µM (inactive)
- GI50 (DMS-273): 16 µM (inactive)
- GI50 (HCC 2998): 16.6 µM (inactive)
- GI50 (HCT-116): 11.2 µM (inactive)
- GI50 (HCT-15): 13.8 µM
- GI50 (HL-60): 13 µM (inactive)
- GI50 (HOP-62): 19.1 µM (inactive)
- GI50 (HOP-92): 20.9 µM (inactive)
- GI50 (HT-29): 16.3 µM (inactive)
- GI50 (IGROV-1): 4.47 µM (inactive)
- GI50 (K562): 12.7 µM (inactive)
- GI50 (KM-20L2): 15.2 µM (inactive)
- GI50 (KM12): 15.9 µM (inactive)
- GI50 (LOX IMVI): 17 µM (inactive)
- GI50 (LXFL 529): 13.6 µM (inactive)
- GI50 (M14): 21.5 µM (inactive)
- GI50 (M19-MEL): 16.9 µM (inactive)
- GI50 (MOLT-4): 9.68 µM (inactive)
- GI50 (Malme-3M): 17.9 µM (inactive)
- GI50 (NCI-H226): 21.5 µM (inactive)
- GI50 (NCI-H23): 12.2 µM (inactive)
- GI50 (NCI-H460): 16.8 µM (inactive)
- GI50 (NCI-H522): 17.4 µM (inactive)
- GI50 (OVCAR-3): 16.9 µM (inactive)
- GI50 (OVCAR-4): 15.6 µM (inactive)
- GI50 (OVCAR-5): 21.3 µM (inactive)
- GI50 (OVCAR-8): 14.1 µM (inactive)
- GI50 (RPMI-8226): 10.8 µM (inactive)
- GI50 (RXF 631): 14 µM (inactive)
- GI50 (SF-268): 14.3 µM (inactive)
- GI50 (SF-295): 19.3 µM (inactive)
- GI50 (SF-539): 18.2 µM (inactive)
- GI50 (SK-MEL-28): 21.8 µM (inactive)
- GI50 (SK-MEL-2): 18 µM (inactive)
- GI50 (SK-OV-3): 20.7 µM (inactive)
- GI50 (SN12C): 11.7 µM (inactive)
- GI50 (SNB-19): 18.7 µM (inactive)
- GI50 (SNB-75): 27 µM (inactive)
- GI50 (SR): 6.5 µM (inactive)
- GI50 (SW-620): 14.7 µM (inactive)
- GI50 (TK-10): 27.3 µM (inactive)
- GI50 (U-251): 17.9 µM (inactive)
- GI50 (UACC-257): 14.9 µM (inactive)
- GI50 (UACC-62): 11.1 µM (inactive)
- GI50 (UO-31): 5.42 µM (inactive)
- GI50 (XF498): 17.1 µM (inactive)

SMILES: COc1ccc(Br)c(CN2CCc3ccccc32)c1OS(=O)(=O)c1ccc(C)cc1
- GI50 (786-0): 23.7 µM (inactive)
- GI50 (A549): 8.17 µM (inactive)
- GI50 (ACHN): 14.7 µM (inactive)
- GI50 (CCRF-CEM): 21.4 µM (inactive)
- GI50 (COLO 205): 11.9 µM (inactive)
- GI50 (DLD-1): 15.3 µM (inactive)
- GI50 (DMS-114): 18.3 µM (inactive)
- GI50 (EKVX): 58.7 µM (inactive)
- GI50 (HCC 2998): 6.31 µM (inactive)
- GI50 (HCT-15): 25.1 µM
- GI50 (HL-60): 5.15 µM (inactive)
- GI50 (HOP-18): > 100 µM (inactive)
- GI50 (HOP-92): 18 µM (inactive)
- GI50 (K562): 4.75 µM (inactive)
- GI50 (KM12): 7.66 µM (inactive)
- GI50 (M14): 13.9 µM (inactive)
- GI50 (M19-MEL): 4.03 µM (inactive)
- GI50 (MOLT-4): 29.3 µM (inactive)
- GI50 (Malme-3M): 45.2 µM (inactive)
- GI50 (NCI-H226): > 100 µM (inactive)
- GI50 (NCI-H23): 23.9 µM (inactive)
- GI50 (NCI-H522): 4.39 µM (inactive)
- GI50 (OVCAR-3): 5.07 µM (inactive)
- GI50 (OVCAR-5): > 100 µM (inactive)
- GI50 (OVCAR-8): 47.5 µM (inactive)
- GI50 (RPMI-8226): 26.3 µM (inactive)
- GI50 (RXF 393): 8.67 µM (inactive)
- GI50 (RXF 631): 34.4 µM (inactive)
- GI50 (SF-268): 23.7 µM (inactive)
- GI50 (SF-295): 19.5 µM (inactive)
- GI50 (SF-539): 15.6 µM (inactive)
- GI50 (SK-MEL-28): 46 µM (inactive)
- GI50 (SK-MEL-2): 21.8 µM (inactive)
- GI50 (SN12C): 76 µM (inactive)
- GI50 (SNB-19): 42.5 µM (inactive)
- GI50 (SNB-75): 19.2 µM (inactive)
- GI50 (SNB-78): 23.3 µM (inactive)
- GI50 (SR): 43.7 µM (inactive)
- GI50 (SW-620): 16.3 µM (inactive)
- GI50 (TK-10): 8.02 µM (inactive)
- GI50 (UACC-257): 48.2 µM (inactive)
- GI50 (UO-31): 51.2 µM (inactive)
- GI50 (XF498): 12.4 µM (inactive)
